Values of other authors in US10092545B2, “Nutritional supplements for improving female fertility” (Fairhaven Health, LLC, priority 2016, dated 2018).

What was measured:
obese women with PCOS = settings: administering for as little as two months
[1] = system: oocyte-specific Pdss2-deficient animals; settings: maternal dietary administration
females = females taking myo-inositol

COc1ccc2[nH]cc(CCNC(C)=O)c2c1 [melatonin]
fertilization and pregnancy rates (infertile women): elevates | intra-follicular melatonin concentrations (infertile women): increases | intra-follicular oxidative damage (infertile women): reduces

[Cr] [chromium]
improvement of insulin sensitivity (obese women with PCOS): more than 30%

COC1=C(OC)C(=O)C(C/C=C(\C)CC/C=C(\C)CC/C=C(\C)CC/C=C(\C)CC/C=C(\C)CC/C=C(\C)CC/C=C(\C)CC/C=C(\C)CC/C=C(\C)CCC=C(C)C)=C(C)C1=O [CoQ10, Coenzyme Q10]
premature ovarian failure [1]: could be prevented

O[C@H]1[C@H](O)[C@@H](O)[C@H](O)[C@@H](O)[C@H]1O [myo-inositol]
insulin sensitivity (females): increased | serum testosterone level (females): decreased
